For one series, the system named is Serratia marcescens. The series is described as follows: MIC determination, S. marcescens. The conditions noted are these: multidrug-resistant clinical isolate, * = arithmetic mean of 2-6 MIC determinations, read-out: MIC (ug/mL) S. marcescens. It counts as cell-based. As to the method: MIC determinations: The in vitro antibacterial activity of compounds described in the Examples was evaluated by minimum inhibitory concentration (MIC) testing according to Clinical and Laboratory Standards Institute (CLSI, formerly NCCLS) guidelines. See: Clinical and Laboratory Standards Institute. Methods for Dilution Antimicrobial Susceptibility Tests for Bacteria that Grow Aerobically; Approved Standard-Seventh Edition. CLSI document M7-A7 [ISBN 1-56238-587-9]. Clinical and Laboratory Standards Institute, 940 West Valley Road, Suite 1400, Wayne, Pa. 19087-1898 USA, 2006; also Clinical and Laboratory Standards Institute. Performance Standards for Antimicrobial Susceptibility Testing; Eighteenth Informational Supplement. CLSI document M100-S18 [ISBN1-56238-653-0]. Clinical and Laboratory Standards Institute.
The following bacterial strains were used:
Serratia marcescens: Multidrug-resistant clinical isolate.

For the next series, the system named is Escherichia coli EC-1. The series is described as follows: MIC determination, E. coli EC-1. The format is cell-based. The conditions noted are these: EC1, EC-1: VOGEL, * = arithmetic mean of 2-6 MIC determinations, read-out: MIC (ug/mL) E. coli EC-1. A digest of the protocol:
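Minimum inhibitory concentration against Escherichia coli EC-1 was determined in vitro by dilution susceptibility testing under CLSI M7-A7 and M100-S18 guidelines.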

Series [1] concerns Acinetobacter baumanii/haemolyticus. Put plainly: MIC determination, A. baumanii/haemolyticus. The conditions noted are these: Acinetobacter baumannii; multidrug-resistant clinical isolate; * = arithmetic mean of 2-6 MIC determinations; read-out: MIC (ug/mL) A. baumanii/haemolyticus. It counts as cell-based. A digest of the protocol:
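MICs were determined by CLSI broth dilution (M7-A7, M100-S18) against a multidrug-resistant clinical isolate of Acinetobacter baumanii/haemolyticus.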

In series [2] the test system is Staphylococcus aureus ATCC 29213. Put plainly: MIC determination, S. aureus ATCC 29213. It counts as cell-based. To be noted: ATCC29213, CLSI quality control reference strain, * = arithmetic mean of 2-6 MIC determinations, read-out: MIC (ug/mL) S. aureus ATCC 29213. The procedure, abridged: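 MIC was measured by dilution susceptibility testing following CLSI guidelines (M7-A7; M100-S18). The test organism is the CLSI quality-control reference strain.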

The next series relates to Enterobacter aerogenes. Put plainly: MIC determination, E. aerogenes. The format is cell-based. The conditions noted are these: Klebsiella aerogenes; quinolone-resistant, ESBL-expressing clinical isolate; * = arithmetic mean of 2-6 MIC determinations; read-out: MIC (ug/mL) E. aerogenes. The procedure, abridged: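 Clinical E. aerogenes isolate, quinolone-resistant and ESBL-expressing. MIC measured in vitro by dilution testing according to CLSI guidelines (M7-A7, M100-S18).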

The test system of another series is P. aeruginosa PAO280. The series is described as follows: MIC determination, P. aeruginosa PAO280. It counts as cell-based. The conditions noted are these: Pseudomonas aeruginosa, PAO280, read-out: MIC (ug/mL) P. aeruginosa PAO280. The procedure, abridged:
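Broth dilution MIC per CLSI M7-A7/M100-S18 guidelines. Strain PAO280 lacks efflux pumps MexAB-oprM, MexXY and MexZ.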

The next series deals with P. aeruginosa UI-18. The series is described as follows: MIC determination, P. aeruginosa UI-18. It counts as cell-based. The conditions noted are these: Pseudomonas aeruginosa, UI18; wild-type; * = arithmetic mean of 2-6 MIC determinations; read-out: MIC (ug/mL) P. aeruginosa UI-18. The procedure, abridged: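 MIC by broth dilution following CLSI M7-A7 and M100-S18 guidelines, tested against wild-type P. aeruginosa UI-18.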

For the next series, the system named is Klebsiella pneumoniae. Put plainly: MIC determination, K. pneumoniae. The conditions noted are these: ciprofloxacin-resistant, ESBL-expressing clinical isolate, * = arithmetic mean of 2-6 MIC determinations, read-out: MIC (ug/mL) K. pneumoniae. It counts as cell-based. The procedure, abridged: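 MIC determined by broth dilution per CLSI M7-A7 and M100-S18 guidelines. Strain: ciprofloxacin-resistant, ESBL-expressing clinical isolate of K. pneumoniae.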

Series [3] deals with T1, Pseudomonas aeruginosa LpxC enzyme (Pseudomonas aeruginosa, UniProt P47205).
T1 construct: made in house; host or cells: E. coli
T1 sequence (P47205 1-303): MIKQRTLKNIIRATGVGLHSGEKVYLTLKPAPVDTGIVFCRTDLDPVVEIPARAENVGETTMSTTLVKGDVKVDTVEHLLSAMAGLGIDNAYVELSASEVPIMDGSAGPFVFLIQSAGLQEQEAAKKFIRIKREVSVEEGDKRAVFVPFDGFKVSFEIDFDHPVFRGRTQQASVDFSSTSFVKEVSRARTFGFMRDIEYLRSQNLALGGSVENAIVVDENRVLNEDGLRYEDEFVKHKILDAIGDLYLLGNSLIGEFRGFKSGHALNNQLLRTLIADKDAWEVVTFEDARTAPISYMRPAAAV
The series is described as follows: IC50 assay, LpxC enzyme from P. aeruginosa. The format is biochemical. The conditions noted are these: 0.5 nM enzyme, 25° C., pH 8.0, 20 min; ** = average of 2-8 assays. The procedure, abridged:
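P. aeruginosa LpxC (0.5 nM, expressed in E. coli) reacted with 0.5 uM ³H-acetyl-labelled UDP-3-O-(R-3-hydroxydecanoyl)-GlcNAc in 50 mM sodium phosphate pH 8.0 with 1 mg/ml BSA at 25 °C for 20 min. Charcoal stopped the reaction, and filtrate radioactivity was counted by scintillation after no-enzyme background subtraction.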

In brackets after ≈: the same amount, converted by molar mass.

As to `CC(OCc1ccc(-c2ccccc2)cc1)C(=O)NO` (stereo not shown) [Example 54, 2-(biphenyl-4-ylmethoxy)-N-hydroxypropanamide], the melting point lay within 120 to 123 °C. Besides, the MIC in the series on Serratia marcescens is > 64 µg/mL. In addition, in the series on Escherichia coli EC-1, the MIC was > 64 µg/mL. Also, the MIC in series [1] is > 64 µg/mL. Besides, the MIC in [2] is > 64 µg/mL. For the same compound, the MIC in the series with Enterobacter aerogenes is > 64 µg/mL. In addition, in the series on P. aeruginosa PAO280, the MIC came out at 32 µg/mL (≈ 118 µM). Further, the MIC with P. aeruginosa UI-18 was > 64 µg/mL. The MIC in the series on Klebsiella pneumoniae was > 64 µg/mL. Moreover, half-maximal inhibition in [3] (IC50) was put at 0.406 µM.
`C[C@@](OCc1ccc(-c2ccccc2)cc1)(C(=O)NO)[C@@H](O)CC(F)(F)F` [Example 7, (2S,3S)-2-(biphenyl-4-ylmethoxy)-N,3-dihydroxy-2-methyl-5,5,5-trifluoropentanamide]: the MIC with Serratia marcescens is > 64 µg/mL; in the series on Escherichia coli EC-1 it was > 64 µg/mL; in series [1] it was > 64 µg/mL; in [2] it was 64 µg/mL (≈ 167 µM); with Enterobacter aerogenes, > 64 µg/mL; in the series with P. aeruginosa PAO280 it was 2 µg/mL (≈ 5.22 µM). For the same compound, the MIC in the series with P. aeruginosa UI-18 and with Klebsiella pneumoniae was > 64 µg/mL each time. Moreover, the IC50 in series [3] came out at 0.00953 µM.
Regarding `C[C@@H](O)[C@](C)(OCc1ccc(-c2ccccc2)cc1)C(=O)NO` [Example 2b, (2S,3R)-2-(biphenyl-4-ylmethoxy)-N,3-dihydroxy-2-methylbutanamide], the MIC was > 64 µg/mL in the series with Serratia marcescens; > 64 µg/mL in the series on Escherichia coli EC-1; > 64 µg/mL in series [1]; > 64 µg/mL in series [2]; > 64 µg/mL with Enterobacter aerogenes; 0.75 µg/mL (≈ 2.38 µM) in the series on P. aeruginosa PAO280. For the same compound, the MIC in the series on P. aeruginosa UI-18 is 64 µg/mL (≈ 203 µM); with Klebsiella pneumoniae, > 64 µg/mL. The IC50 in series [3] came to 0.00435 µM.
Consider `C[C@@](OCc1ccc(-c2ccccc2)cc1)(C(=O)NO)[C@@H](O)c1c[nH]cn1` [Example 9, (2S,3S)-2-(biphenyl-4-ylmethoxy)-N,3-dihydroxy-3-(1H-imidazol-4-yl)-2-methylpropanamide], for which the MIC is > 64 µg/mL in the series with Serratia marcescens; > 64 µg/mL with Escherichia coli EC-1; > 64 µg/mL in [1]; > 64 µg/mL in series [2]; > 64 µg/mL in the series on Enterobacter aerogenes; 0.125 µg/mL (≈ 0.34 µM) with P. aeruginosa PAO280. Also, the results for the MIC in the series with P. aeruginosa UI-18 and with Klebsiella pneumoniae were 8 µg/mL (≈ 21.8 µM) and > 64 µg/mL, respectively. In series [3], the IC50 was found to be 0.00084 µM.
For `CC(C)C[C@H](O)[C@](C)(OCc1ccc(-c2ccccc2)cc1)C(=O)NO` [Example 6, (2S,3S)-2-(biphenyl-4-ylmethoxy)-N,3-dihydroxy-2,5-dimethylhexanamide], the MIC with Serratia marcescens was > 64 µg/mL; in the series with Escherichia coli EC-1 it was > 64 µg/mL; in [1], > 64 µg/mL; in [2], 64 µg/mL (≈ 179 µM); with Enterobacter aerogenes, > 64 µg/mL; with P. aeruginosa PAO280 it was 64 µg/mL (≈ 179 µM). Also, the MIC in the series on P. aeruginosa UI-18 and with Klebsiella pneumoniae was > 64 µg/mL throughout. In series [3], this compound showed an IC50 of 0.16 µM.
As for `C[C@@](OCc1ccc(-c2ccccc2)cc1)(C(=O)NO)[C@@H](O)c1cccnc1` [Example 12, (2S,3S)-2-(biphenyl-4-ylmethoxy)-N,3-dihydroxy-2-methyl-3-pyridin-3-ylpropanamide], the MIC with Serratia marcescens is > 64 µg/mL; with Escherichia coli EC-1 it was > 64 µg/mL; in [1], > 64 µg/mL; in series [2], 32 µg/mL (≈ 84.6 µM); with Enterobacter aerogenes, > 64 µg/mL; in the series with P. aeruginosa PAO280, 0.5 µg/mL (≈ 1.32 µM). Further, the values for the MIC in the series on P. aeruginosa UI-18 and in the series with Klebsiella pneumoniae were 32 µg/mL (≈ 84.6 µM) and > 64 µg/mL, respectively. Further, the IC50 in series [3] came to 0.00181 µM.
As for `CCOCC[C@H](O)[C@](C)(OCc1ccc(-c2ccccc2)cc1)C(=O)NO` [Example 8, (2S,3S)-2-(biphenyl-4-ylmethoxy)-5-ethoxy-N,3-dihydroxy-2-methylpentanamide], the MIC in the series with Serratia marcescens was > 64 µg/mL; in the series with Escherichia coli EC-1 it was > 64 µg/mL; in [1], > 64 µg/mL; in [2] it was > 64 µg/mL; in the series with Enterobacter aerogenes, > 64 µg/mL; in the series on P. aeruginosa PAO280 it was 8 µg/mL (≈ 21.4 µM). The MIC in the series on P. aeruginosa UI-18 and in the series on Klebsiella pneumoniae was > 64 µg/mL throughout. The compound further gave an IC50 in series [3] of 0.0284 µM.
Take `COCC(CO)(OCc1ccc(-c2ccccc2)cc1)C(=O)NO` (stereo not shown) [Example 56, 2-(biphenyl-4-ylmethoxy)-N,3-dihydroxy-2-(methoxymethyl)propanamide]: the MIC in the series on Serratia marcescens is > 64 µg/mL; in the series with Escherichia coli EC-1, > 64 µg/mL; in [1], > 64 µg/mL; in [2] it was > 64 µg/mL; in the series on Enterobacter aerogenes, > 64 µg/mL; with P. aeruginosa PAO280, 4 µg/mL (≈ 12.1 µM). Moreover, the MIC in the series on P. aeruginosa UI-18 and in the series on Klebsiella pneumoniae was > 64 µg/mL in each case. In series [3], this compound returned an IC50 of 0.0222 µM.
On to `C[C@@](OCc1ccc(-c2ccccc2)cc1)(C(=O)NO)[C@@H](O)c1ccccc1` [Example 11, (2S,3S)-2-(biphenyl-4-ylmethoxy)-N,3-dihydroxy-2-methyl-3-phenylpropanamide], for which the MIC with Serratia marcescens was > 64 µg/mL; in the series on Escherichia coli EC-1, > 64 µg/mL; in [1], > 64 µg/mL; in series [2] it was 32 µg/mL (≈ 84.8 µM); with Enterobacter aerogenes, > 64 µg/mL; in the series on P. aeruginosa PAO280, 8 µg/mL (≈ 21.2 µM). Moreover, the MIC with P. aeruginosa UI-18 and in the series on Klebsiella pneumoniae was > 64 µg/mL throughout. In [3], this compound displayed an IC50 of 0.00509 µM.

A word on the melting point: it is the temperature of the solid-liquid transition. Broadly, the IC50 is the concentration that gives 50% inhibition. Read a high IC50 as weaker potency.

The values above are taken from patent publication US9340493B2, “Hydroxamic acid derivatives useful as antibacterial agents” (Pfizer Inc., priority 2008, dated 2016).
